# Measured values as given in US11498899B2, “Nitrone herbicides” (FMC Corporation, priority 2016, dated 2022).
# Experiments:
# [1] = test system: barnyardgrass (Echinochloa crus-galli); test: Test A preemergence, visual injury rating 0-100 (0 no effect, 100 complete control); type: in vivo
# [2] = test system: foxtail, giant (giant foxtail, Setaria faberii); test: Test A preemergence, visual injury rating 0-100; type: in vivo
# kochia (Kochia scoparia) [3] = test: Test A preemergence, visual injury rating 0-100; type: in vivo
# [4] = test system: pigweed (Amaranthus retroflexus); test: Test A preemergence, visual injury rating 0-100; type: in vivo
# [5] = test system: ragweed (common ragweed, Ambrosia elatior); test: Test A preemergence, visual injury rating 0-100; type: in vivo
# [6] = test system: ryegrass, Italian (Italian ryegrass, Lolium multiflorum); test: Test A preemergence, visual injury rating 0-100; type: in vivo
# [7] = test system: barnyardgrass (Echinochloa crus-galli); test: Test A postemergence, visual injury rating 0-100; type: in vivo; conditions: 0 to 100 scale
# From the text: (§1) Seeds of plant species selected from barnyardgrass (Echinochloa crus-galli), kochia (Kochia scoparia), ragweed (common ragweed, Ambrosia elatior), ryegrass, Italian (Italian ryegrass, Lolium multiflorum), foxtail, giant (giant foxtail, Setaria faberii), foxtail, green (green foxtail, Setaria viridis), and pigweed (Amaranthus retroflexus) were planted into a blend of loam soil and sand and treated preemergence with a directed soil spray using test chemicals formulated in a non-phytotoxic solvent mixture which included a surfactant.
# (§2) At the same time, plants selected from these weed species and also wheat (Triticum aestivum), corn (Zea mays), blackgrass (Alopecurus myosuroides), and galium (catchweed bedstraw, Galium aparine) were planted in pots containing the same blend of loam soil and sand and treated with postemergence applications of test chemicals formulated in the same manner. Plants ranged in height from 2 to 10 cm and were in the one- to two-leaf stage for the postemergence treatment. Treated plants and untreated controls were maintained in a greenhouse for approximately 10 days, after which time all treated plants were compared to untreated controls and visually evaluated for injury. […] A dash (-) response means no test result.
# [8] = test system: blackgrass (Alopecurus myosuroides); test: Test A postemergence, visual injury rating 0-100; type: in vivo; conditions: 0 to 100 scale
# From the text: as §1, §2
# corn (Zea mays) = test: Test A postemergence, visual injury rating 0-100; type: in vivo; conditions: 0 to 100 scale
# From the text: as §1, §2
# [9] = test system: foxtail, giant (giant foxtail, Setaria faberii); test: Test A postemergence, visual injury rating 0-100; type: in vivo; conditions: 0 to 100 scale
# From the text: as §1, §2
# [10] = test system: galium (catchweed bedstraw, Galium aparine); test: Test A postemergence, visual injury rating 0-100; type: in vivo; conditions: 0 to 100 scale
# From the text: as §1, §2
# kochia (Kochia scoparia) [11] = test: Test A postemergence, visual injury rating 0-100; type: in vivo; conditions: 0 to 100 scale
# From the text: as §1, §2
# [12] = test system: pigweed (Amaranthus retroflexus); test: Test A postemergence, visual injury rating 0-100; type: in vivo; conditions: 0 to 100 scale
# From the text: as §1, §2
# [13] = test system: ragweed (common ragweed, Ambrosia elatior); test: Test A postemergence, visual injury rating 0-100; type: in vivo; conditions: 0 to 100 scale
# From the text: as §1, §2
# [14] = test system: ryegrass, Italian (Italian ryegrass, Lolium multiflorum); test: Test A postemergence, visual injury rating 0-100; type: in vivo; conditions: 0 to 100 scale
# From the text: as §1, §2
# [15] = test system: wheat (Triticum aestivum); test: Test A postemergence, visual injury rating 0-100; type: in vivo; conditions: 0 to 100 scale
# From the text: as §1, §2
# [16] = test system: ducksalad (Heteranthera limosa); test: Test B flooded paddy test, visual rating 0-100; conditions: Flood, 250 g ai/ha, applied to paddy water, rated after 13 to 15 days
# [17] = test system: barnyardgrass (Echinochloa crus-galli); test: Test B flooded paddy test, visual rating 0-100; conditions: Flood, 250 g ai/ha, applied to paddy water, rated after 13 to 15 days
# rice (Oryza sativa) = test: Test B flooded paddy test, visual rating 0-100 (0 no effect, 100 complete control); conditions: Flood, 250 g ai/ha, applied to paddy water, rated after 13 to 15 days
# [18] = 31 g ai/ha, 0 to 100 scale (0 no effect, 100 complete control), approx. 10 days
SMILES,Barnyardgrass plant response rating (0 to 100 scale) ([1]; 125 g ai/ha),Barnyardgrass plant response rating (0 to 100 scale) ([1]; 500 g ai/ha),"Foxtail, Giant plant response rating (0 to 100 scale) ([2]; 125 g ai/ha)",Kochia plant response rating (0 to 100 scale) (kochia (Kochia scoparia) [3]; 125 g ai/ha),Pigweed plant response rating (0 to 100 scale) ([4]; 125 g ai/ha),Ragweed plant response rating (0 to 100 scale) ([5]; 125 g ai/ha),"Ryegrass, Italian plant response rating (0 to 100 scale) ([6]; 125 g ai/ha)",Barnyardgrass plant response rating ([7]; 125 g ai/ha),Blackgrass plant response rating ([8]; 125 g ai/ha),Corn plant response rating (corn (Zea mays); 125 g ai/ha),"Foxtail, Giant plant response rating ([9]; 125 g ai/ha)",Galium plant response rating ([10]; 125 g ai/ha),Kochia plant response rating (kochia (Kochia scoparia) [11]; 125 g ai/ha),Pigweed plant response rating ([12]; 125 g ai/ha),Ragweed plant response rating ([13]; 125 g ai/ha),"Ryegrass, Italian plant response rating ([14]; 125 g ai/ha)",Wheat plant response rating ([15]; 125 g ai/ha),Ducksalad plant response rating (0 to 100 scale) [16],Barnyardgrass plant response rating (0 to 100 scale) [17],Rice plant response rating (0 to 100 scale) (rice (Oryza sativa)),also measured
CC1=[N+]([O-])C(C(=O)Nc2cccc(F)c2F)C(c2cc(F)cc(Oc3ccc(Cl)nc3)c2)C1 (racemic) [Compound 50],50,90,90,30,0,0,0,0,40,0,10,0,0,0,0,0,0,0,0,0,"Foxtail, Giant plant response rating (0 to 100 scale) ([2]; 500 g ai/ha): 90; Kochia plant response rating (0 to 100 scale) (kochia (Kochia scoparia) [3]; 500 g ai/ha): 70; Pigweed plant response rating (0 to 100 scale) ([4]; 500 g ai/ha): 40; Ragweed plant response rating (0 to 100 scale) ([5]; 500 g ai/ha): 0; Ryegrass, Italian plant response rating (0 to 100 scale) ([6]; 500 g ai/ha): 80; Barnyardgrass plant response rating ([7]; 500 g ai/ha): 50; Blackgrass plant response rating ([8]; 500 g ai/ha): 70; Corn plant response rating (corn (Zea mays); 500 g ai/ha): 40; Foxtail, Giant plant response rating ([9]; 500 g ai/ha): 50; Galium plant response rating ([10]; 500 g ai/ha): 30; Kochia plant response rating (kochia (Kochia scoparia) [11]; 500 g ai/ha): 50; Pigweed plant response rating ([12]; 500 g ai/ha): 60; Ragweed plant response rating ([13]; 500 g ai/ha): 40; Ryegrass, Italian plant response rating ([14]; 500 g ai/ha): 20; Wheat plant response rating ([15]; 500 g ai/ha): 0"
CC1=[N+]([O-])C(C(=O)Nc2cccc(F)c2F)C(c2ccc(F)c(Oc3ccc(Cl)nc3)c2)C1 (racemic) [Compound 51],40,–,30,0,0,0,0,0,70,0,0,70,20,0,60,0,10,0,0,0,"Barnyardgrass plant response rating [1, 18]: 0; Foxtail, Giant plant response rating [2, 18]: 0; Kochia plant response rating (kochia (Kochia scoparia) [3]; [18]): 0; Pigweed plant response rating [4, 18]: 0; Ragweed plant response rating [5, 18]: 0; Ryegrass, Italian plant response rating [6, 18]: 0; Barnyardgrass plant response rating ([7]; 31 g ai/ha): 0; Blackgrass plant response rating ([8]; 31 g ai/ha): 0; Corn plant response rating (corn (Zea mays); 31 g ai/ha): 0; Foxtail, Giant plant response rating ([9]; 31 g ai/ha): 0; Galium plant response rating ([10]; 31 g ai/ha): 60; Kochia plant response rating (kochia (Kochia scoparia) [11]; 31 g ai/ha): 0; Pigweed plant response rating ([12]; 31 g ai/ha): 0; Ragweed plant response rating ([13]; 31 g ai/ha): 0; Ryegrass, Italian plant response rating ([14]; 31 g ai/ha): 0; Wheat plant response rating ([15]; 31 g ai/ha): 0"
CC1=[N+]([O-])C(C(=O)Nc2cccc(F)c2F)C(c2ccc(F)c(Oc3ncc(F)cn3)c2)C1 (racemic) [Compound 52],90,100,80,0,0,0,80,30,30,0,0,20,0,0,0,20,10,0,0,0,"Foxtail, Giant plant response rating (0 to 100 scale) ([2]; 500 g ai/ha): 100; Kochia plant response rating (0 to 100 scale) (kochia (Kochia scoparia) [3]; 500 g ai/ha): 20; Pigweed plant response rating (0 to 100 scale) ([4]; 500 g ai/ha): 70; Ragweed plant response rating (0 to 100 scale) ([5]; 500 g ai/ha): 60; Ryegrass, Italian plant response rating (0 to 100 scale) ([6]; 500 g ai/ha): 90; Barnyardgrass plant response rating ([7]; 500 g ai/ha): 70; Blackgrass plant response rating ([8]; 500 g ai/ha): 70; Corn plant response rating (corn (Zea mays); 500 g ai/ha): 70; Foxtail, Giant plant response rating ([9]; 500 g ai/ha): 90; Galium plant response rating ([10]; 500 g ai/ha): 70; Kochia plant response rating (kochia (Kochia scoparia) [11]; 500 g ai/ha): 20; Pigweed plant response rating ([12]; 500 g ai/ha): 0; Ragweed plant response rating ([13]; 500 g ai/ha): 30; Ryegrass, Italian plant response rating ([14]; 500 g ai/ha): 60; Wheat plant response rating ([15]; 500 g ai/ha): 70"
CC1=[N+]([O-])C(C(=O)Nc2cccc(F)c2F)C(c2cccc(Oc3ccc(Cl)cn3)c2)C1 (racemic) [Compound 56],10,90,60,0,0,0,60,20,70,0,40,30,10,0,0,50,20,40,25,0,"Foxtail, Giant plant response rating (0 to 100 scale) ([2]; 500 g ai/ha): 90; Kochia plant response rating (0 to 100 scale) (kochia (Kochia scoparia) [3]; 500 g ai/ha): 0; Pigweed plant response rating (0 to 100 scale) ([4]; 500 g ai/ha): 0; Ragweed plant response rating (0 to 100 scale) ([5]; 500 g ai/ha): 0; Ryegrass, Italian plant response rating (0 to 100 scale) ([6]; 500 g ai/ha): 70; Barnyardgrass plant response rating ([7]; 500 g ai/ha): 60; Blackgrass plant response rating ([8]; 500 g ai/ha): 80; Corn plant response rating (corn (Zea mays); 500 g ai/ha): 40; Foxtail, Giant plant response rating ([9]; 500 g ai/ha): 40; Galium plant response rating ([10]; 500 g ai/ha): 50; Kochia plant response rating (kochia (Kochia scoparia) [11]; 500 g ai/ha): 20; Pigweed plant response rating ([12]; 500 g ai/ha): 30; Ragweed plant response rating ([13]; 500 g ai/ha): 20; Ryegrass, Italian plant response rating ([14]; 500 g ai/ha): 80; Wheat plant response rating ([15]; 500 g ai/ha): 40"
